# Laboratory results: the NIST ThermoML archive (doi:10.1021/je0342522)
# Numbers after ± are expanded uncertainties.
# Columns and labels:
# [1] = Liquid
# [2] = excess molar enthalpy (molar enthalpy of mixing); xn = mol fraction of the nth substance listed; conditions: 323.15 K, 4100 kPa, Liquid, Flow calorimetry
smiles,measurement,setting,value
"OCCO [1,2-ethanediol]",vapor or sublimation pressure,[1]; 333.15 K,0.22 ± 0.04 kPa
same,vapor or sublimation pressure,[1]; 353.15 K,0.77 ± 0.05 kPa
CC(=O)c1ccccc1 [acetophenone],vapor or sublimation pressure,[1]; 323.27 K,0.34 ± 0.042 kPa
C=CC [propene],vapor or sublimation pressure,[1]; 323.27 K,2058.9 ± 14 kPa
C=CC [propene] + CC(=O)c1ccccc1,excess molar enthalpy,[2]; x1 = 0.0702,0.054 ± 0.002 kJ/mol
same,excess molar enthalpy,[2]; x1 = 0.1375,0.105 ± 0.003 kJ/mol
same,excess molar enthalpy,[2]; x1 = 0.202,0.148 ± 0.003 kJ/mol
same,excess molar enthalpy,[2]; x1 = 0.264,0.188 ± 0.004 kJ/mol
same,excess molar enthalpy,[2]; x1 = 0.3235,0.213 ± 0.005 kJ/mol
same,excess molar enthalpy,[2]; x1 = 0.4086,0.24 ± 0.005 kJ/mol
same,excess molar enthalpy,[2]; x1 = 0.4889,0.25 ± 0.006 kJ/mol
same,excess molar enthalpy,[2]; x1 = 0.5893,0.246 ± 0.006 kJ/mol
same,excess molar enthalpy,[2]; x1 = 0.6828,0.218 ± 0.005 kJ/mol
same,excess molar enthalpy,[2]; x1 = 0.7487,0.184 ± 0.004 kJ/mol
same,excess molar enthalpy,[2]; x1 = 0.8115,0.142 ± 0.003 kJ/mol
same,excess molar enthalpy,[2]; x1 = 0.8516,0.113 ± 0.003 kJ/mol
same,excess molar enthalpy,[2]; x1 = 0.8905,0.082 ± 0.002 kJ/mol
same,excess molar enthalpy,[2]; x1 = 0.9281,0.052 ± 0.002 kJ/mol
same,excess molar enthalpy,[2]; x1 = 0.9646,0.025 ± 0.001 kJ/mol
O [water],vapor or sublimation pressure,[1]; 333.15 K,19.93 ± 0.17 kPa
same,vapor or sublimation pressure,[1]; 353.15 K,47.44 ± 0.35 kPa
